# Measurements published in PMC8766756, “Insights on Cancer Cell Inhibition, Subcellular Activities, and Kinase Profile of Phenylacetamides Pending 1H-Imidazol-5-One Variants” (Frontiers in Pharmacology, 2022).
# Columns and labels:
# Assay in all cases: PamChip tyrosine kinase microarray
# Type in all cases: biochemical
# Conditions in all cases: 0.1 µM, HL60 lysate
# TEC (P42680) = target: T1, TEC (P42680) (Homo sapiens, UniProt P42680)
# T1 construct: purchased PamGene (PamChip PTK array, Upstream Kinase Analysis)
# T1 sequence (P42680 1-631): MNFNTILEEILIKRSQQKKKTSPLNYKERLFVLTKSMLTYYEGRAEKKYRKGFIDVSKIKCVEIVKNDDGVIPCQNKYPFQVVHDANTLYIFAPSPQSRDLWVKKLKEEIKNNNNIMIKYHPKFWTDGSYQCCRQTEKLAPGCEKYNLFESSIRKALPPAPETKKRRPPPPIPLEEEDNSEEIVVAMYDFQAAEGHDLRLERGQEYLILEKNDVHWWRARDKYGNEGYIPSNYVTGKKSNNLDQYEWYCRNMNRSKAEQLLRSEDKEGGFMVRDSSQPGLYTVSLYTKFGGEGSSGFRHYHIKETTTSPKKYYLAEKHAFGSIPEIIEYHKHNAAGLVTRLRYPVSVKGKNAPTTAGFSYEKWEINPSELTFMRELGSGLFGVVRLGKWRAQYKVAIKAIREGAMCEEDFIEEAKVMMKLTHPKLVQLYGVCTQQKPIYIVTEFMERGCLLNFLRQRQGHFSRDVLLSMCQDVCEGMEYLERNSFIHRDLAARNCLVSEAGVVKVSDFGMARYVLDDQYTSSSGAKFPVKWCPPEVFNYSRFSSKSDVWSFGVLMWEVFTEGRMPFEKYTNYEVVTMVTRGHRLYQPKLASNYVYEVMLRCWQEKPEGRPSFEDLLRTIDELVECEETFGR
# Procedure, shortened: (§1)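 HL60 (AML) cell lysate was spiked with compound at 0.001, 0.01, 0.1, 1, 10 and 50 µM, or 2% v/v DMSO as control, then profiled in technical replicates on a tyrosine kinase peptide array of 196 phosphosites. Kinase activity was inferred from peptide-set changes using an upstream kinase tool.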
# EGFR (P00533) = target: T2, EGFR (P00533) (Homo sapiens, UniProt P00533)
# T2 construct: purchased PamGene (PamChip PTK array, Upstream Kinase Analysis)
# Procedure, shortened: as §1
# Etk/BMX (P51813) = target: T3, Etk/BMX (P51813) (Homo sapiens, UniProt P51813)
# T3 construct: purchased PamGene (PamChip PTK array, Upstream Kinase Analysis)
# T3 sequence (P51813 1-675): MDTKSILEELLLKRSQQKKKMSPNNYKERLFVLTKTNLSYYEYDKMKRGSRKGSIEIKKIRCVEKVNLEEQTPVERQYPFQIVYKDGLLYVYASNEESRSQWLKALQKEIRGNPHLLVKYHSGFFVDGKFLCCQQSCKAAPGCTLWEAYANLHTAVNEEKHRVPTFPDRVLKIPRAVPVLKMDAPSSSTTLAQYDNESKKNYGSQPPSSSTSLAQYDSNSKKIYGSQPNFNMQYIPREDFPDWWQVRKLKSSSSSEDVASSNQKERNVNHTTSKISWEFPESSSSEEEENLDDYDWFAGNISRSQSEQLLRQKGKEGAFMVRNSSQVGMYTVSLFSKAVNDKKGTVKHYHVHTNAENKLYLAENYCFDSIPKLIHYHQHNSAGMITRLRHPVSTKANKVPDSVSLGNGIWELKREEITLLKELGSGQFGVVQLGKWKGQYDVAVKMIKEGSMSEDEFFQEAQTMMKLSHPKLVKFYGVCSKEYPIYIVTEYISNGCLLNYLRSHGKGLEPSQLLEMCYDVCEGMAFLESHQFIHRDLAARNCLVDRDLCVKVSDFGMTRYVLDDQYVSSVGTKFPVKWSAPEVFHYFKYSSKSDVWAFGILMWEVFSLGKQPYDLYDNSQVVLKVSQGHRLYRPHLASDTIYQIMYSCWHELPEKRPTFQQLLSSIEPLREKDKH
# Procedure, shortened: as §1
# Fer (P16591) = target: T4, Fer (P16591) (Homo sapiens, UniProt P16591)
# T4 construct: purchased PamGene (PamChip PTK array, Upstream Kinase Analysis)
# Procedure, shortened: as §1
# T2 sequence (P00533 25-1210): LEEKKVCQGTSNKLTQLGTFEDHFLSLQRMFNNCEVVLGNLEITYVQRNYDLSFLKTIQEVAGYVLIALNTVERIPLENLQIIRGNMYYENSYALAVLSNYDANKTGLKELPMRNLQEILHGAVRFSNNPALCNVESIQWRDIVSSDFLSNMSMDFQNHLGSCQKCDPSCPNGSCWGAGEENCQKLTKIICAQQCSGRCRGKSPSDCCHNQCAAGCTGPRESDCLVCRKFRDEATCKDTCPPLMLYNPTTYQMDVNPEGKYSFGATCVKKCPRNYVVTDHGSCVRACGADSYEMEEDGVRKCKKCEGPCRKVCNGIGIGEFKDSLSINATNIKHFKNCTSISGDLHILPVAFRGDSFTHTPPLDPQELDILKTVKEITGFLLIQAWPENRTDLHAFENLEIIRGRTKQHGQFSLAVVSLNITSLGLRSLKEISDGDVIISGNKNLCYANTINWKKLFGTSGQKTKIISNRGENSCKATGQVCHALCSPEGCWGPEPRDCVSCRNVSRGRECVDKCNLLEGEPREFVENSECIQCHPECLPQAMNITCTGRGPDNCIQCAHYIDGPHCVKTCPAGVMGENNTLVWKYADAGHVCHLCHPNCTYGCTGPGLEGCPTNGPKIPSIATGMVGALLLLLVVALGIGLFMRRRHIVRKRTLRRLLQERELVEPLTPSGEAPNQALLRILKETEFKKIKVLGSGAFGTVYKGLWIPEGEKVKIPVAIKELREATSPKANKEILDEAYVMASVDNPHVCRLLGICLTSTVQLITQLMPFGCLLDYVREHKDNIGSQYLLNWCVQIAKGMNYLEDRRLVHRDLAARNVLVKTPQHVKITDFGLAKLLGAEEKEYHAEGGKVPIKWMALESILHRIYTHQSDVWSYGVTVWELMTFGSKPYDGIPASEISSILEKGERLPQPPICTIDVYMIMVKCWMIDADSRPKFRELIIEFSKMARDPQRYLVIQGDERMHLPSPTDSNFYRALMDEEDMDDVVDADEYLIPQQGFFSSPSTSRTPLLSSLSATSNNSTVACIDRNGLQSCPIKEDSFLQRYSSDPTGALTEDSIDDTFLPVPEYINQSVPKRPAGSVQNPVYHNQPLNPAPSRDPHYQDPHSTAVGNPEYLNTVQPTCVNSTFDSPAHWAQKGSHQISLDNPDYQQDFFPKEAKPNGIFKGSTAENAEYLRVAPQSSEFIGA
# T4 sequence (P16591 whole entry): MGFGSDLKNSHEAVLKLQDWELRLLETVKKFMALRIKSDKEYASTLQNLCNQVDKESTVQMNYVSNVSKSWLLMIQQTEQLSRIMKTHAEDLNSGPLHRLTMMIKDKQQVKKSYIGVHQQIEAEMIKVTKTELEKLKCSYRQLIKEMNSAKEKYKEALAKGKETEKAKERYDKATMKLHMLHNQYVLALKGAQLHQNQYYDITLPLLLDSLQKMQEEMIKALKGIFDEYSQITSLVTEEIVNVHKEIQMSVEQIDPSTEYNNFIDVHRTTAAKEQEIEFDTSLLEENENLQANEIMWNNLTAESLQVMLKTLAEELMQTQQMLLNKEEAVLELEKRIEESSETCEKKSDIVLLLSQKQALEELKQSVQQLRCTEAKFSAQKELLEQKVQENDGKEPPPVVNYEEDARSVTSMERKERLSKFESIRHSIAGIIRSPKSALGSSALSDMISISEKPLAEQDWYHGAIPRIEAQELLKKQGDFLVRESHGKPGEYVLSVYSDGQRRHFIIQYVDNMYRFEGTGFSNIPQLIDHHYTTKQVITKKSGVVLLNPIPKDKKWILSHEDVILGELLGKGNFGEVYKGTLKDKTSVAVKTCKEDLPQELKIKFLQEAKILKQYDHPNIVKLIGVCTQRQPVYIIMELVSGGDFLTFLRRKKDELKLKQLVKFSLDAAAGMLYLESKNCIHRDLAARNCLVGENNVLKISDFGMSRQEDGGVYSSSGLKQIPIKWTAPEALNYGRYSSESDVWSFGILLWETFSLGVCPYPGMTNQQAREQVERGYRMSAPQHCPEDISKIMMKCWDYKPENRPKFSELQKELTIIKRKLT
structure (smiles),measurement,setting,value
"COc1ccc(/C=C2\N=C(C)N(c3ccc(CC(=O)NCc4ccccc4)cc3)C2=O)cc1 [Compound 4c, (Z)-N-Benzyl-2-(4-(4-(4-methoxybenzylidene)-2-methyl-5-oxo-4,5-dihydro-1H-imidazol-1-yl)phenyl)acetamide]",Mean Final score (Kinase score),TEC (P42680),2.197
same,Mean Kinase Statistic,TEC (P42680),-1.125
same,Mean Significance Score,TEC (P42680),2.048
same,Mean Specificity Score,TEC (P42680),0.171
same,Mean Final score (Kinase score),EGFR (P00533),2.116
same,Mean Kinase Statistic,EGFR (P00533),-1.053
same,Mean Significance Score,EGFR (P00533),2.048
same,Mean Specificity Score,EGFR (P00533),0.03887
same,Mean Final score (Kinase score),Etk/BMX (P51813),2.196
same,Mean Kinase Statistic,Etk/BMX (P51813),-1.111
same,Mean Significance Score,Etk/BMX (P51813),2.048
same,Mean Specificity Score,Etk/BMX (P51813),0.1452
same,Mean Final score (Kinase score),Fer (P16591),2.491
same,Mean Kinase Statistic,Fer (P16591),-1.259
same,Mean Significance Score,Fer (P16591),2.048
same,Mean Specificity Score,Fer (P16591),0.455
